{
  "source": "patent US20160039852A1",
  "about": "“THERAPEUTIC USES OF BISPHOSPHONATES” (THE UNIVERSITY OF SHEFFIELD, priority 2013, published 2016)",
  "key": {"[1]": {"test_system": "human mesenchymal stem cells (hMSC)", "assay": "hMSC growth kinetics, cumulative population doublings with time in culture", "assay_type": "cell-based", "details": "for population doublings after which cultures stopped proliferating: hMSC, from the start of the treatment, PBS cultures senesced after 21-25 PDs, n=3; for hMSC life span / time of proliferation in culture: versus PBS control"}, "[2]": {"test_system": "human mesenchymal stem cells (hMSC)", "assay": "Immunostaining of γH2AX DNA damage foci (double stranded breaks) in hMSC", "assay_type": "cell-based", "details": "for number of γH2AX DNA damage foci after irradiation: 1Gy irradiation, compound at 1 μM, foci at 4 h (Zol also 12, 24 h) versus PBS; for effect of Zol on DNA damage after addition of prenylation intermediate: 1Gy, Zol plus FOH or GGOH (33 μM)", "description": "DNA damage was induced by exposing hMSC to ^137Cs Gamma source. Cells were washed with PBS and fixed with 4% Para-formaldehyde for […]. Cells were then washed with PBS permeabilized with 0.5% Triton-X (Sigma, UK) for […] and blocked with 5% normal goat serum (DAKO, Glostrup, Denmark) in PBS for 1 hr. This was followed by incubation with primary antibody, anti-phospho histone H2AX (Ser139) (Millipore, Massachusetts, USA) used at 1:800 in 5% normal goat serum, overnight at 4° C. Cells were then washed in PBS and incubated in secondary Anti mouse IgG Fluorescein Isothiocyanate (FITC) conjugated (Insight Biotechnology, Santa Cruz, USA) at 1:200 in PBS for 1 hour at room temperature. The cover-slips were mounted on slides with mounting media (VectaShield) containing 4',6-diamidino-2-phenylindole (DAPI) to stain the nuclei. […] Cells were viewed using in an Inverted Zeiss LSM 510 NLO microscope equipped with Argon (Ar) laser (488 nm) 30 mW to image the fluorescent marker FITC and UV lamp to image DAPI stained nuclei. Five to seven fields consisting of 25 cells in total were randomly selected from a tile scan (20×) and individual cells viewed at 63× were then scored for γH2AX DNA damage foci using ImageJ 1.45 software (http://rsbweb.nih.gov/ij/). One of the factors affecting cellular lifespan is accumulation of DNA damage."}, "FPP synthase": {"target": "T1, FPP synthase (Homo sapiens, UniProt P14324)", "T1 sequence (P14324 1-419)": "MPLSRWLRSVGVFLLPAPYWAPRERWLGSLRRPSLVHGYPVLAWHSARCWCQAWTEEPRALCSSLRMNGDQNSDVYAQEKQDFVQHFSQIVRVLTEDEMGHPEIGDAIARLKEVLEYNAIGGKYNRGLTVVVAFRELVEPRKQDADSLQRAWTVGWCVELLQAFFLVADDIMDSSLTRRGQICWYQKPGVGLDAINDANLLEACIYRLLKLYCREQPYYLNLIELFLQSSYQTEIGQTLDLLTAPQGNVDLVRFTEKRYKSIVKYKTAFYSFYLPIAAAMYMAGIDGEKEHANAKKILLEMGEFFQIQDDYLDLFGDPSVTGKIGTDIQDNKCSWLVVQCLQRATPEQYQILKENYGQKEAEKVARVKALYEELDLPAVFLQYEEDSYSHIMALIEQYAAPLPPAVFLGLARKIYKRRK", "assay": "Prenyl synthase assay (FPP synthase activity)", "assay_type": "biochemical", "description": "FPP synthase activity was measured by the method of Reed and Rilling (Reed, B. C. & Rilling, H. C. (1976) Biochemistry 15, 3739-3745) with modifications. Assays were set up such that the final volume was 100 ul. The assay conditions were 50 mM Tris pH7.7, 2 mM MgCl2, 0.5 mM TCEP, 20 μg/ml BSA. For FPP synthase assays the final enzyme concentration was 10 nM. All substrates were at 10 μM final concentration each substrate, all reactions were with IPP (14C-IPP, 400Kq/μMol American Radiochem. Corp). For FPP synthase GPP was the second substrate. Bisphosphonate was added as 1/10th volume of a 10× stock solution and allowed to preincubate for 10 minutes with the enzyme in a volume of 80 ul and the reaction started by the addition of 20 ul of the combined substrate. The reaction was allowed to proceed for 4 minutes at 37° C. before being terminated by the addition of 0.2 ml of conc. HCI/Methanol (1:4) and incubated for a further 10 mins at 37° C. The reaction mixtures were then extracted with 0.4 ml of immiscible scintillation fluid (Microscint E, Perkin Elmer) to separate reaction products from unused substrate and were counted directly with a microbeta scintillation counter (Perkin Elmer)."}, "[3]": {"test_system": "zebrafish embryo caudal fin", "assay": "Zebrafish tail amputation and regeneration following irradiation", "assay_type": "in vivo, Zebrafish (Danio Rerio H)", "details": "irradiated embryos, Zol plus FOH or GGOH", "description": "Embryos from wild-type Zebrafish (Danio Rerio H) AB strain were collected at 16 cell stage (˜1.5 hours post fertilisation (hpf)) and grown in E3 Medium at 28° C. Embryos were treated with Zoledronate (1 μM) and/or FOH, GGOH at 24 hpf. DNA damage was induced by exposure to ^137Cs Gamma source at 48 hpf and after irradiation the embryo tails were amputated and the embryos were then incubated at 28° C. for a further 12 hrs in the presence of the chemicals. At the end of this period the chemicals were washed off and the embryos were incubated in fresh medium with no chemicals. The embryos were grown up to 120 hpf, following which they were fixed in 4% PFA overnight and then mounted in 100% glycerol. The tail lengths of embryos were measured taking the anal region as starting reference point and the end of the fin fold as the ending point of measurement."}},
  "note": "Where two headings read alike, the source gives them in different places.",
  "data": [
    {"compound": "NCCCC(O)(P(=O)(O)O)P(=O)(O)O", "note": "[Alendronate]", "values": [
      {"measurement": "population doublings after which cultures stopped proliferating", "setting": "[1]", "value": "27-30 PDs"},
      {"measurement": "hMSC life span / time of proliferation in culture", "setting": "[1]", "value": "extend hMSC lifespan"},
      {"measurement": "number of γH2AX DNA damage foci after irradiation", "setting": "[2]", "value": "enhance repair of DNA damage"}
    ]},
    {"compound": "O=P(O)(O)C1CC2CCCNC2C1P(=O)(O)O", "note": "(stereo not shown) [Compound A, 2-Azabicyclo-[4.3.0]nonane-8,9-diphosphonic acid]", "values": [
      {"measurement": "number of γH2AX DNA damage foci after irradiation", "setting": "[2]", "value": "significant decrease"},
      {"measurement": "number of γH2AX DNA damage foci after irradiation", "setting": "[2]; listed as compound A", "value": "significant reduction in DNA damage"},
      {"measurement": "affinity for / inhibitory potency on FPP synthase", "setting": "FPP synthase", "value": "high affinity"},
      {"measurement": "affinity for / inhibitory potency on FPP synthase", "setting": "FPP synthase; listed as compound A", "value": "high"}
    ]},
    {"compound": "O=P(O)(O)C1CC2CCCNC2C1P(=O)(O)O", "note": "(stereo not shown) [Compound B, 2-Azabicyclo-[4.3.0]nonane-8,9-diphosphonic acid]", "values": [
      {"measurement": "number of γH2AX DNA damage foci after irradiation", "setting": "[2]", "value": "not"},
      {"measurement": "affinity for / inhibitory potency on FPP synthase", "setting": "FPP synthase", "value": "low affinity"},
      {"measurement": "affinity for / inhibitory potency on FPP synthase", "setting": "FPP synthase; listed as compound B", "value": "low"}
    ]},
    {"compound": "O=P(O)(O)C(F)(Cc1cnc2ccccn12)P(=O)(O)O", "note": "[Compound C, 1-fluoro-2-(imidazo-[1,2-a]pyridine-3-yl)-ethyl-bisphosphonic acid]", "values": [
      {"measurement": "DNA repair (γH2AX DNA damage foci), concentration dependence", "setting": "[2]; Compound C at increasing concentrations, 4 hours after irradiation", "value": "enhances DNA repair in a dose dependent manner"},
      {"measurement": "affinity for / inhibitory potency on FPP synthase", "setting": "FPP synthase", "value": "high inhibitory potency"}
    ]},
    {"compound": "CC(C)=CCC/C(C)=C/CC/C(C)=C/CO", "note": "[FOH, Trans, trans farnesol]", "values": [
      {"measurement": "effect of Zol on DNA damage after addition of prenylation intermediate", "setting": "[2]", "value": "reversed"},
      {"measurement": "Zol-mediated fin repair process after addition of FOH or GGOH", "setting": "[3]", "value": "abrogated"}
    ]},
    {"compound": "CC(C)=CCC/C(C)=C/CC/C(C)=C/CC/C(C)=C/CO", "note": "[GGOH, geranylgeraniol]", "values": [
      {"measurement": "effect of Zol on DNA damage after addition of prenylation intermediate", "setting": "[2]", "value": "reversed"},
      {"measurement": "Zol-mediated fin repair process after addition of FOH or GGOH", "setting": "[3]", "value": "abrogated"}
    ]},
    {"compound": "O=P(O)(O)C(O)(Cc1cccnc1)P(=O)(O)O", "note": "[Risedronate]", "values": [
      {"measurement": "population doublings after which cultures stopped proliferating", "setting": "[1]", "value": "29-34 PDs"},
      {"measurement": "hMSC life span / time of proliferation in culture", "setting": "[1]", "value": "extend hMSC lifespan"},
      {"measurement": "number of γH2AX DNA damage foci after irradiation", "setting": "[2]", "value": "enhance repair of DNA damage"}
    ]}
  ]
}
